Results published in paper PMC8179002, “Inhibitors of thiol-mediated uptake” (Chemical Science, 2020).

Tested on: pseudo-lentivectors that express the D614G mutant of the SARS-CoV-2 spike protein
Format: cell-based

| Compound | Concentration at onset of inhibition of pseudo-lentivector entry [µM] | IC50 (read-out: IC50, inhibition of pseudo-lentivector entry) [µM] |
| --- | --- | --- |
| CCN1C(=O)C2SSSSC1C(=O)N2CC(=O)O (centres unmarked) [compound 3] | 50 | – |
| O=S1(=O)C[C@H](O)[C@H](O)CS1 [compound 16] | – | ~50 |
